According to ChEMBL document CHEMBL5036347, “Design of the naphthyl-diarylpyrimidines as potent non-nucleoside reverse transcriptase inhibitors (NNRTIs) via structure-based extension into the entrance channel” (Eur J Med Chem, 2021):
pEC50: −log10 of the molar value. Values after ≈ are worked out from the molar mass of the structure shown.

Assays:
[1] = Water solubility of compound at pH 7.4 at 0.1 to 10 mg by HPLC-UV analysis; type: physicochemical; conditions: dose 0.1-10 mg
[2] = Water solubility of compound at pH 7 at 0.1 to 10 mg by HPLC-UV analysis; type: physicochemical; conditions: dose 0.1-10 mg
[3] = Water solubility of compound at pH 2 at 0.1 to 10 mg by HPLC-UV analysis; type: physicochemical; conditions: dose 0.1-10 mg
[4] = system: Human immunodeficiency virus 1; assay: Antiviral activity against HIV1 harboring reverse transcriptase K103N/Y181C double mutant infected in human MT4 cells assessed as protection against virus-induced cytopathic effect incubated for 5 days by MTT assay; type: functional, organism-based; conditions: Human immunodeficiency virus 1, MT4, 120 h
[5] = system: Human immunodeficiency virus 1; assay: Antiviral activity against HIV1 harboring reverse transcriptase L100I mutant infected in human MT4 cells assessed as protection against virus-induced cytopathic effect incubated for 5 days by MTT assay; type: functional, organism-based; conditions: Human immunodeficiency virus 1, MT4, 120 h
[6] = system: Human immunodeficiency virus 1; assay: Antiviral activity against HIV1 harboring reverse transcriptase Y181C mutant infected in human MT4 cells assessed as protection against virus-induced cytopathic effect incubated for 5 days by MTT assay; type: functional, organism-based; conditions: Human immunodeficiency virus 1, MT4, 120 h
[7] = system: Human immunodeficiency virus 1; assay: Antiviral activity against HIV1 harboring reverse transcriptase Y188L mutant infected in human MT4 cells assessed as protection against virus-induced cytopathic effect incubated for 5 days by MTT assay; type: functional, organism-based; conditions: Human immunodeficiency virus 1, MT4, 120 h
[8] = system: Human immunodeficiency virus 1; assay: Antiviral activity against HIV1 harboring reverse transcriptase E138K mutant infected in human MT4 cells assessed as protection against virus-induced cytopathic effect incubated for 5 days by MTT assay; type: functional, organism-based; conditions: Human immunodeficiency virus 1, MT4, 120 h
[9] = system: Human immunodeficiency virus 1; assay: Antiviral activity against HIV1 harboring reverse transcriptase K103N mutant infected in human MT4 cells assessed as protection against virus-induced cytopathic effect incubated for 5 days by MTT assay; type: functional, organism-based; conditions: Human immunodeficiency virus 1, MT4, 120 h
[10] = system: Human immunodeficiency virus 1; assay: Anti-HIV activity against HIV-1 IIIB infected in human MT4 cells assessed as reduction in virus-induced cytopathic effect incubated for 5 days by MTT assay; type: functional, organism-based; conditions: Human immunodeficiency virus 1, IIIB, MT4, 120 h
[11] = system: Human immunodeficiency virus 1; assay: Antiviral activity against HIV1 harboring reverse transcriptase F227L/V106A mutant infected in human MT4 cells assessed as protection against virus-induced cytopathic effect incubated for 5 days by MTT assay; type: functional, organism-based; conditions: Human immunodeficiency virus 1, MT4, 120 h
[12] = Resistance fold, ratio of EC50 for HIV1 harboring reverse transcriptase K103N mutant […] to EC50 for wild type HIV1 […]; type: functional
[13] = Cytotoxicity against human MT4 cells assessed as reduction in cell viability incubated for 5 days by MTT assay; type: cell-based; conditions: human, MT4 cells; time 5 day
[14] = Resistance fold, ratio of EC50 for HIV1 harboring reverse transcriptase K103N/Y181C double mutant […] to EC50 for wild type HIV1 […]; type: functional
[15] = system: Human immunodeficiency virus 2; assay: Anti-HIV activity against HIV2 ROD infected in human MT4 cells assessed as reduction in virus-induced cytopathic effect incubated for 5 days by MTT assay; type: functional, organism-based; conditions: Human immunodeficiency virus 2, ROD, MT4, 120 h
[16] = Resistance fold, ratio of EC50 for HIV1 harboring reverse transcriptase Y181C mutant […] to EC50 for wild type HIV1 […]; type: functional
[17] = Resistance fold, ratio of EC50 for HIV1 harboring reverse transcriptase F227L/V106A double mutant […] to EC50 for wild type HIV1 […]; type: functional
[18] = Resistance fold, ratio of EC50 for HIV1 harboring reverse transcriptase Y188L mutant […] to EC50 for wild type HIV1 […]; type: functional
[19] = Selectivity index, ratio of CC50 for cytotoxicity against human MT4 cells to EC50 of Anti-HIV activity against HIV-1 IIIB infected in human MT4; type: toxicity, cell-based; conditions: read-out: Selectivity Index
[20] = Resistance fold, ratio of EC50 for HIV1 harboring reverse transcriptase E138K mutant […] to EC50 for wild type HIV1 […]; type: functional

Row | Compound | solubility [1] | solubility [2] | solubility [3] | further results
1 | CC(=O)O.COc1cc2cc(C#N)ccc2c(OC)c1Oc1cc(N2CCC(O)C2)nc(Nc2ccc(C#N)cc2)n1 (configuration not stated) | 3 µg/mL | < 1 µg/mL | < 1 µg/mL | 
2 | CCNc1cc(Oc2c(OC)cc3cc(C#N)ccc3c2OC)nc(Nc2ccc(C#N)cc2)n1.Cc1ccc(S(=O)(=O)O)cc1 | 12 µg/mL | < 1 µg/mL | < 1 µg/mL | 
3 | CCNc1cc(Oc2c(OC)cc3cc(C#N)ccc3c2OC)nc(Nc2ccc(C#N)cc2)n1.O=C(O)/C=C\C(=O)O | 47 µg/mL | 1 µg/mL | 2 µg/mL | 
4 | COc1cc2cc(C#N)ccc2c(OC)c1Oc1cc(N)nc(Nc2ccc(C#N)cc2)n1.O=C(O)C(F)(F)F | 3 µg/mL | 1 µg/mL | < 1 µg/mL | 
5 | COc1cc2cc(C#N)ccc2c(OC)c1Oc1cc(N2CCC(O)C2)nc(Nc2ccc(C#N)cc2)n1.CS(=O)(=O)O (configuration not stated) | 2 µg/mL | < 1 µg/mL | < 1 µg/mL | 
6 | CCNc1cc(Oc2c(OC)cc3cc(C#N)ccc3c2OC)nc(Nc2ccc(C#N)cc2)n1.O=S(=O)(O)O | 115 µg/mL | 4 µg/mL | 9 µg/mL | 
7 | CCNc1cc(Oc2c(OC)cc3cc(C#N)ccc3c2OC)nc(Nc2ccc(C#N)cc2)n1.O=CO | 2 µg/mL | < 1 µg/mL | < 1 µg/mL | 
8 | COc1cc2cc(C#N)ccc2c(OC)c1Oc1cc(N2CCC(O)C2)nc(Nc2ccc(C#N)cc2)n1.O=C(O)C(F)(F)F (configuration not stated) | 1 µg/mL | < 1 µg/mL | < 1 µg/mL | 
9 | CCNc1cc(Oc2c(OC)cc3cc(C#N)ccc3c2OC)nc(Nc2ccc(C#N)cc2)n1.O=C(O)C(F)(F)F | < 1 µg/mL | < 1 µg/mL | < 1 µg/mL | 
10 | CC(=O)O.COc1cc2cc(C#N)ccc2c(OC)c1Oc1cc(N)nc(Nc2ccc(C#N)cc2)n1 | < 1 µg/mL | < 1 µg/mL | < 1 µg/mL | 
11 | COc1cc2cc(C#N)ccc2c(OC)c1Oc1cc(N)nc(Nc2ccc(C#N)cc2)n1.O=C(O)C(O)C(O)C(=O)O | 29 µg/mL | < 1 µg/mL | < 1 µg/mL | 
12 | COc1cc2cc(C#N)ccc2c(OC)c1Oc1cc(N2CCC(O)C2)nc(Nc2ccc(C#N)cc2)n1.O=C(O)C(O)C(O)C(=O)O (configuration not stated) | 3 µg/mL | < 1 µg/mL | < 1 µg/mL | 
13 | COc1cc2cc(C#N)ccc2c(OC)c1Oc1cc(N2CCC(O)C2)nc(Nc2ccc(C#N)cc2)n1.O=S(=O)(O)O (configuration not stated) | 2 µg/mL | < 1 µg/mL | < 1 µg/mL | 
14 | CCNc1cc(Oc2c(OC)cc3cc(C#N)ccc3c2OC)nc(Nc2ccc(C#N)cc2)n1.Cl | 11 µg/mL | < 1 µg/mL | 9 µg/mL | 
15 | COc1cc2cc(C#N)ccc2c(OC)c1Oc1cc(N)nc(Nc2ccc(C#N)cc2)n1.O=C(O)/C=C\C(=O)O | 28 µg/mL | 7 µg/mL | 13 µg/mL | 
16 | Br.CCNc1cc(Oc2c(OC)cc3cc(C#N)ccc3c2OC)nc(Nc2ccc(C#N)cc2)n1 | 1 µg/mL | 1 µg/mL | 1 µg/mL | 
17 | COc1cc2cc(C#N)ccc2c(OC)c1Oc1cc(N)nc(Nc2ccc(C#N)cc2)n1.Cl | 84 µg/mL | 1 µg/mL | 6 µg/mL | 
18 | Br.COc1cc2cc(C#N)ccc2c(OC)c1Oc1cc(N)nc(Nc2ccc(C#N)cc2)n1 | < 1 µg/mL | < 1 µg/mL | < 1 µg/mL | 
19 | CCNc1cc(Oc2c(OC)cc3cc(C#N)ccc3c2OC)nc(Nc2ccc(C#N)cc2)n1.O=C(O)CC(O)(CC(=O)O)C(=O)O | 1 µg/mL | < 1 µg/mL | 1 µg/mL | 
20 | COc1cc2cc(C#N)ccc2c(OC)c1Oc1cc(N)nc(Nc2ccc(C#N)cc2)n1.O=CO | 2 µg/mL | < 1 µg/mL | 1 µg/mL | 

Row | Compound | solubility [1] | solubility [2] | solubility [3] | further results
21 | CCNc1cc(Oc2c(OC)cc3cc(C#N)ccc3c2OC)nc(Nc2ccc(C#N)cc2)n1.O=C(O)C(O)C(O)C(=O)O | 29 µg/mL | < 1 µg/mL | 1 µg/mL | 
22 | COc1cc2cc(C#N)ccc2c(OC)c1Oc1cc(N2CCC(O)C2)nc(Nc2ccc(C#N)cc2)n1.I (configuration not stated) | 9 µg/mL | < 1 µg/mL | < 1 µg/mL | 
23 | COc1cc2cc(C#N)ccc2c(OC)c1Oc1cc(N)nc(Nc2ccc(C#N)cc2)n1.Cc1ccc(S(=O)(=O)O)cc1 | 2 µg/mL | < 1 µg/mL | 2 µg/mL | 
24 | CCNc1cc(Oc2c(OC)cc3cc(C#N)ccc3c2OC)nc(Nc2ccc(C#N)cc2)n1.I | 1 µg/mL | < 1 µg/mL | 1 µg/mL | 
25 | COc1cc2cc(C#N)ccc2c(OC)c1Oc1cc(N2CCC(O)C2)nc(Nc2ccc(C#N)cc2)n1.O=CO (configuration not stated) | 3 µg/mL | < 1 µg/mL | < 1 µg/mL | 
26 | CCNc1cc(Oc2c(OC)cc3cc(C#N)ccc3c2OC)nc(Nc2ccc(C#N)cc2)n1.CS(=O)(=O)O | 1 µg/mL | < 1 µg/mL | < 1 µg/mL | 
27 | COc1cc2cc(C#N)ccc2c(OC)c1Oc1cc(N)nc(Nc2ccc(C#N)cc2)n1.O=C(O)CC(O)(CC(=O)O)C(=O)O | 4 µg/mL | < 1 µg/mL | < 1 µg/mL | 
28 | COc1cc2cc(C#N)ccc2c(OC)c1Oc1cc(N2CCC(O)C2)nc(Nc2ccc(C#N)cc2)n1.O=C(O)CC(O)(CC(=O)O)C(=O)O (configuration not stated) | < 2 µg/mL | < 1 µg/mL | < 1 µg/mL | 
29 | COc1cc2cc(C#N)ccc2c(OC)c1Oc1cc(N)nc(Nc2ccc(C#N)cc2)n1.I | 1 µg/mL | < 1 µg/mL | < 1 µg/mL | 
30 | CC(=O)O.CCNc1cc(Oc2c(OC)cc3cc(C#N)ccc3c2OC)nc(Nc2ccc(C#N)cc2)n1 | 19 µg/mL | < 1 µg/mL | 1 µg/mL | 
31 | COc1cc2cc(C#N)ccc2c(OC)c1Oc1cc(N2CCC(O)C2)nc(Nc2ccc(C#N)cc2)n1.Cl (configuration not stated) | 2 µg/mL | < 1 µg/mL | < 1 µg/mL | 
32 | COc1cc2cc(C#N)ccc2c(OC)c1Oc1cc(N)nc(Nc2ccc(C#N)cc2)n1.CS(=O)(=O)O | 11 µg/mL | < 1 µg/mL | 4 µg/mL | 
33 | Br.COc1cc2cc(C#N)ccc2c(OC)c1Oc1cc(N2CCC(O)C2)nc(Nc2ccc(C#N)cc2)n1 (configuration not stated) | < 1 µg/mL | < 1 µg/mL | < 1 µg/mL | 
34 | COc1cc2cc(C#N)ccc2c(OC)c1Oc1cc(N)nc(Nc2ccc(C#N)cc2)n1.O=S(=O)(O)O | 72 µg/mL | < 1 µg/mL | < 1 µg/mL | 
35 | COc1cc2cc(C#N)ccc2c(OC)c1Oc1cc(N2CCC(O)C2)nc(Nc2ccc(C#N)cc2)n1.O=C(O)/C=C\C(=O)O (configuration not stated) | 5 µg/mL | < 1 µg/mL | < 1 µg/mL | 
36 | COc1cc2cc(C#N)ccc2c(OC)c1Oc1cc(N2CCC(O)C2)nc(Nc2ccc(C#N)cc2)n1.Cc1ccc(S(=O)(=O)O)cc1 (configuration not stated) | 13 µg/mL | 6 µg/mL | 8 µg/mL | 
37 | O=C1Nc2ccc(Cl)cc2[C@@](C#CC2CC2)(C(F)(F)F)O1 [EFAVIRENZ] |  |  |  | pEC50 [4]: 6.66; pEC50 [5]: 7.02; pEC50 [6]: 8.13; pEC50 [7]: 8.14; pEC50 [8]: 8.28; pEC50 [9]: 6.85; pEC50 [10]: 8.37; pEC50 [11]: 6.48
38 | Cc1cc(C#N)cc(C)c1Oc1nc(Nc2ccc(C#N)cc2)nc(N)c1Br [ETRAVIRINE] | 1 µg/mL (≈ 2.3 µM) | < 1 µg/mL | 127 µg/mL (≈ 292 µM) | pEC50 [4]: 7.28; pEC50 [5]: 7.85; pEC50 [6]: 7.68; pEC50 [7]: 7.52; pEC50 [8]: 7.68; pEC50 [9]: 8.42; pEC50 [11]: 7.57
39 | Cc1ccnc2c1NC(=O)c1cccnc1N2C1CC1 [NEVIRAPINE] |  |  |  | pEC50 [6]: 5.15; pEC50 [8]: 6.48; pEC50 [9]: 5.07; pEC50 [10]: 4.66
40 | Cc1cn([C@H]2C[C@H](N=[N+]=[N-])[C@@H](CO)O2)c(=O)[nH]c1=O [ZIDOVUDINE] |  |  |  | pEC50 [4]: 7.48; pEC50 [5]: 8.00; Ratio EC50 [12]: 2; CC50 at 120 h [13]: > 2000 nM; Ratio EC50 [14]: 1; pEC50 [6]: 7.51; pEC50 [7]: 7.54; pEC50 [15]: 7.70; pEC50 [8]: 7.29; Ratio EC50 [16]: 1; pEC50 [9]: 7.49; pEC50 [10]: 7.54; pEC50 [11]: 7.51; Ratio EC50 [17]: 1; Ratio EC50 [18]: 1; selectivity ratio [19]: > 240; Ratio EC50 [20]: 2
